Results taken from patent US11912682B2, “Isoindolinone compounds” (Monte Rosa Therapeutics, Inc., priority 2021, dated 2024).
pIC50: −log10 of the molar value. Like-named read-outs stand apart in the source and are kept apart here.

What was measured:
[1] = biological target: Full length wild-type cereblon CRBN (Homo sapiens (Human), UniProt Q96SW2); test: fluorescence polarization (FP) assay, cereblon binding
Source text: Compound activity was monitored in a fluorescence polarization (FP) homogeneous assay using 1-[5-({2-[2-(2-{[2-(2,6-dioxopiperidin-3-yl)-1,3-dioxo-2,3-dihydro-1H-isoindol-4-yl]oxy}acetamido)ethoxy]ethyl}carbamoyl)pentyl]-3,3-dimethyl-2-[(1E,3E)-5-[(2E)-1,3,3-trimethyl-5-sulfo-2,3-dihydro-1H-indol-2-ylidene]penta-1,3-dien-1-yl]-3H-indol-1-ium-5-sulfonate as a fluorescent probe. Unless otherwise stated, all reagents were purchased from Sigma Aldrich. […] Full length wild-type cereblon CRBN (80.0 nM, 10 μL) was incubated in assay buffer containing 20 mM HEPES (pH 8.0), […], 0.5 mM TCEP and 0.05% Tween 20 in the presence or absence of compound (300 nL). Inhibitors were stored as 10 mM DMSO stocks in an inert environment (low humidity, dark, low oxygen, room temperature) using the Storage Pod System. […] Following incubation at room temperature for 30 min, the assay was initiated by dispensing the probe to a final concentration of 5 nM (2.5 nL of a 20 μM stock) using the Echo ESXX. […] The FP signal was subsequently normalized to the no-compound control (i.e., DMSO). Analysis and IC50 values were derived using Dotmatics (Dotmatics UK) software.

GSPT1 = GSPT1 (Homo sapiens (Human), UniProt P15170+Q96SW2); test: immunofluorescence assay for GSPT1 degradation in CAL-51 cells (Example 4); assay type: cell-based
Chain of GSPT1 (P15170 whole entry): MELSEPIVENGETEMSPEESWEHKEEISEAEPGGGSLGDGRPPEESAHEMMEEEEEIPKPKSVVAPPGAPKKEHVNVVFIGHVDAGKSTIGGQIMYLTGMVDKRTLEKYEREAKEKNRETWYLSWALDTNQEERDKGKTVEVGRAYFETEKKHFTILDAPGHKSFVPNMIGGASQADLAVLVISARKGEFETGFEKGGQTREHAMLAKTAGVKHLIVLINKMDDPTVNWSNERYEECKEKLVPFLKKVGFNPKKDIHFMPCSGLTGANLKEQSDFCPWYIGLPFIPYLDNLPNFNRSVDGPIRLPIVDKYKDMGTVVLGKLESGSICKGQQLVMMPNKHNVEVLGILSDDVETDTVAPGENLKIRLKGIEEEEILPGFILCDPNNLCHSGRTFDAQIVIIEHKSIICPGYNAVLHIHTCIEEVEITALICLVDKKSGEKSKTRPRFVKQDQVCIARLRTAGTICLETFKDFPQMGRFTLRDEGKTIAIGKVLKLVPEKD
Chain of GSPT1 (Q96SW2 whole entry): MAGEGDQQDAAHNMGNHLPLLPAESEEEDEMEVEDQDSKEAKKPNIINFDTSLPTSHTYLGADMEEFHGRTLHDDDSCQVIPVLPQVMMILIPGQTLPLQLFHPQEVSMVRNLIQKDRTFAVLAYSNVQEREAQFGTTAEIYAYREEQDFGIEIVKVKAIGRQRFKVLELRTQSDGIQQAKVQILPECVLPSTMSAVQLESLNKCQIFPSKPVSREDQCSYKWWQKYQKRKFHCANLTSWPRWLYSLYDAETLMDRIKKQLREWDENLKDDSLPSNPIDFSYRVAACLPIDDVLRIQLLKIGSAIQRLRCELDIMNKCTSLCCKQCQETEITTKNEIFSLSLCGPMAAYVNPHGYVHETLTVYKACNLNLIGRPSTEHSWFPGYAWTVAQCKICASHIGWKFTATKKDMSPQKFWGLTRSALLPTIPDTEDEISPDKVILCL
Chain of GSPT1 (Q16531 2-1140 partner): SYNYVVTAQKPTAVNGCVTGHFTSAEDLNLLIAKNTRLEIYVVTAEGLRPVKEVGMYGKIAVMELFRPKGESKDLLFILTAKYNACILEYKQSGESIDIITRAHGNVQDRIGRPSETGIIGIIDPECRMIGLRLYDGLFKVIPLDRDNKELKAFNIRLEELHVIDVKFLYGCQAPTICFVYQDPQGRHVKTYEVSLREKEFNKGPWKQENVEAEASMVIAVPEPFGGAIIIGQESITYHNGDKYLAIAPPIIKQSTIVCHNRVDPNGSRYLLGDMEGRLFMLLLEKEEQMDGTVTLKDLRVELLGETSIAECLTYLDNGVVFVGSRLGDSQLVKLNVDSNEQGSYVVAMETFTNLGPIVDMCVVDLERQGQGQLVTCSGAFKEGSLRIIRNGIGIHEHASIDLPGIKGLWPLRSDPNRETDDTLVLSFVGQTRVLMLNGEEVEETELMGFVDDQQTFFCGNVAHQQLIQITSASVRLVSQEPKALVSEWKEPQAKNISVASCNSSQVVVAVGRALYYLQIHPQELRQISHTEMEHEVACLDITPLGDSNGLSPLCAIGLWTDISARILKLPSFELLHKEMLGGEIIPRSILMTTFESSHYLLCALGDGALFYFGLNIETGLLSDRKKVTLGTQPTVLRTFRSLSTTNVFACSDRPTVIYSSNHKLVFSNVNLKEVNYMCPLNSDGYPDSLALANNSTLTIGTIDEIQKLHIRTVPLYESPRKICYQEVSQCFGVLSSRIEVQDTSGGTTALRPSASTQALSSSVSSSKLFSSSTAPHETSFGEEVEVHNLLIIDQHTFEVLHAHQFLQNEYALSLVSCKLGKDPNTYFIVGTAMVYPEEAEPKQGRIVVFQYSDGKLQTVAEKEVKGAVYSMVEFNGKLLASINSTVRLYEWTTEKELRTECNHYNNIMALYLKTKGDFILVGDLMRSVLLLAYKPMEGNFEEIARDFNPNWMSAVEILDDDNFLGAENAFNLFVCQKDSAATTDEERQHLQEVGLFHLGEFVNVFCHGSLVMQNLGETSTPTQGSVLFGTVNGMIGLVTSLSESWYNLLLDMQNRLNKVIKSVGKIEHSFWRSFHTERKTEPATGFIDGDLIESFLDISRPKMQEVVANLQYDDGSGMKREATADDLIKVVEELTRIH
Description: The representative compounds were tested in an immunofluorescence assay for their activity to bind to degrade GSPT1. CAL-51 cells were purchased from DSMZ (cat. Number ACC302), sub-cultured in 90% Dulbecco's MEM (4.5 g/L glucose, Gibco 11965) +10% heat inactivated FBS (BioConcept, 2-01F136I) and incubated at 37° C., 5% CO2. For the assay, imaging microtiterplate Cell Carrier 96 Ultra (Perkin Elmer 6055302) were pre-coated with Fibronectin (Sigma F085, 30 μl at 0.2 μg/ml) in PBS (100 μl, Gibco 14190) for 45 min at room temperature, rinsed with PBS and CAL-51 cells (30 K cells/well) were plated and let to adhere overnight. Cells were treated with compounds typically using a serial dilution ranging from 30 μM to 0.1 nM for 6 hours. Compounds were stored at 10 mM DMSO stocks. Vehicle (DMSO), positive (CC-885, 10 μM) and rescue controls (positive control plus 0.2 μM bortezomib) were also included atthis stage. Cells were subsequently rinsed with PBS and fixed in 10% Formalin solution (50 μl, Sigma HT5011)) for 20 mins at room temperature. Following three consecutive PBS washes (100 μl), cells were permeabilized in 0.1% Triton X-100 in PBS (Sigma 93443, 50 μl) for 15 mins at room temperature. Following three further PBS washes, 50 μl blocking buffer (1% BSA, Sigma A4503, in PBS) was added for 45 min for signal-to-noise reduction.
Primary antibody (human GSPT1, Sigma HPA052488) was diluted in blocking buffer (dil.1/300, 35 μl/well) and incubated with the cells overnight at 4° C. After three PBS washes, Alexa-fluor 488 coupled secondary antibodies (Invitrogen, A32731, dil.1/1000), Alexa-fluor 647-Phalloidin (Invitrogen, A22287, dil.1/200) and DAPI (Thermo, #62248, dil.1/1000) were diluted in blocking buffer and incubated with the samples for 2 hours at room temperature. After three final PBS washes, samples were conserved in 100 μl PBS in the dark, until measurement. Image acquisition was performed on the Operetta High-Content Imager (Perkin-Elmer). Fluorescence intensity of Alexa-Fluor 488 (GSPT1), Alexa-Fluor 647 (Actin) and DAPI (Nucleus) were measured. For the determination of GSPT1 DC50 values, a custom algorithm implemented in the PerkinElmer image analysis software Harmony-Acapella® was developed. After user-defined setting of adjustment parameters, the analysis was run identically without human intervention for all image fields. DAPI staining of the nuclei was used to determine the location of cells using standard nuclei detection modules. Segmentation artifacts were removed by threshold-based filters for area, roundness and intensity. The outline of the cells was determined analogously from the sum of the normalized, smoothed DAPI and Actin channel, starting from each nucleus. The Alexa-Fluor 488 (GSPT1) signal intensity in each cell was finally measured, in order to obtain a Mean intensity per cell. GSPT1 degradation (DC50) was calculated after normalization to controls and data import in CDD vault Database, using non-linear regression.

[2] = 6 hours, read-out: Activity for GSPT1 degradation, Code (DC50)
[3] = GSPT1 degradation, read-out: DC50 value

Chain of Full length wild-type cereblon CRBN (Q96SW2 whole entry): as the sequence (Q96SW2 whole entry) above

Row | SMILES | pIC50 ([1]; read-out: rFP IC50) | DC50 (GSPT1; [2]) | DC50 (GSPT1; [3]) | pIC50 ([1]; read-out: IC50 value)
1 | O=C1CCC(N2Cc3ccc(COC(=O)Nc4ccc(OC(F)(F)F)cc4F)cc3C2=O)C(=O)N1 (stereo not drawn) [Compound 148, (2-(2,6-dioxopiperidin-3-yl)-3-oxoisoindolin-5-yl)methyl(2-fluoro-4-(trifluoromethoxy)phenyl)carbamate] | < 5.77 | > 300 nM | – | –
2 | CC1CCCN1c1ccc(NC(=O)OCc2ccc3c(c2)C(=O)N(C2CCC(=O)NC2=O)C3)cn1 (stereo not drawn) [Compound 74] | > 6.30 | < 30 nM | ≤ 30 nM | –
3 | O=C1CCC(N2Cc3ccc(COC(=O)Nc4ccc(-c5ccccn5)cc4)cc3C2=O)C(=O)N1 (stereo not drawn) [Compound 50] | < 5.77 | < 30 nM | ≤ 30 nM | –
4 | CC(C)CCNC(=O)OCc1ccc2c(c1)C(=O)N(C1CCC(=O)NC1=O)C2 (stereo not drawn) [Compound 27] | < 5.77 | > 300 nM | – | –
5 | O=C1CCC(N2Cc3ccc(COC(=O)Nc4cc(Cl)cc(OC(F)F)c4)cc3C2=O)C(=O)N1 (stereo not drawn) [Compound 19] | < 5.77 | 30 to 300 nM | – | –
6 | COc1cc(Cl)ccc1NC(=O)OCc1ccc2c(c1)C(=O)N(C1CCC(=O)NC1=O)C2 (stereo not drawn) [Compound 38] | – | > 300 nM | – | > 5.96
7 | CC(OC(=O)Nc1cccc(OC(F)(F)F)c1)c1ccc2c(c1)C(=O)N(C1CCC(=O)NC1=O)C2 (stereo not drawn) [Compound 121, 1-(2-(2,6-dioxopiperidin-3-yl)-3-oxoisoindolin-5-yl)ethyl(3-(trifluoromethoxy)phenyl)carbamate] | < 5.77 | > 300 nM | – | –
8 | O=C1CCC(N2Cc3ccc(COC(=O)NC4CCN(c5ccccn5)CC4)cc3C2=O)C(=O)N1 (stereo not drawn) [Compound 35] | > 6.30 | > 300 nM | – | –
9 | CN1CCN(c2ccc(NC(=O)OCc3ccc4c(c3)C(=O)N(C3CCC(=O)NC3=O)C4)cn2)CC1 (stereo not drawn) [Compound 82] | > 6.30 | > 300 nM | – | –
10 | Cc1c(Cl)cc(NC(=O)OCc2ccc3c(c2)C(=O)N(C2CCC(=O)NC2=O)C3)cc1CN1CC2CCC(C1)O2 (stereo not drawn) [Compound 21] | < 5.77 | < 30 nM | ≤ 30 nM | –
11 | CN1CCC(Oc2cc(Cl)cc(NC(=O)OCc3ccc4c(c3)C(=O)N(C3CCC(=O)NC3=O)C4)c2)C1 (stereo not drawn) [Compound 46] | > 6.30 | < 30 nM | ≤ 30 nM | –
12 | Cc1c(Cl)cc(NC(=O)OCc2ccc3c(c2)C(=O)N(C2CCC(=O)NC2=O)C3)cc1OC1CCN(C)C1 (stereo not drawn) [Compound 68] | – | < 30 nM | ≤ 30 nM | > 5.96
13 | Cc1c(CN2CCOCC2)cc(NC(=O)OCc2ccc3c(c2)C(=O)N(C2CCC(=O)NC2=O)C3)cc1OC(F)(F)F (stereo not drawn) [Compound 34] | < 5.77 | < 30 nM | ≤ 30 nM | –
14 | O=C1CCC(N2Cc3ccc(COC(=O)NC4CCCC4)cc3C2=O)C(=O)N1 (stereo not drawn) [Compound 29] | – | > 300 nM | – | > 5.96
15 | O=C1CCC(N2Cc3ccc(COC(=O)Nc4ccc(F)c(OC(F)(F)F)c4)cc3C2=O)C(=O)N1 (stereo not drawn) [Compound 61] | < 5.77 | < 30 nM | ≤ 30 nM | –
16 | O=C1CCC(N2Cc3ccc(COC(=O)Nc4ccc(C5CCC5)cc4)cc3C2=O)C(=O)N1 (stereo not drawn) [Compound 104] | < 5.77 | 30 to 300 nM | – | –
17 | O=C1CCC(N2Cc3ccc(COC(=O)N4CCCC4)cc3C2=O)C(=O)N1 (stereo not drawn) [Compound 26] | – | > 300 nM | – | > 5.96
18 | CC1(c2ccc(NC(=O)OCc3ccc4c(c3)C(=O)N(C3CCC(=O)NC3=O)C4)cn2)CC1 (stereo not drawn) [Compound 152, (2-(2,6-dioxopiperidin-3-yl)-3-oxoisoindolin-5-yl)methyl (6-(1-methylcyclopropyl)pyridin-3-yl)carbamate] | > 6.30 | < 30 nM | ≤ 30 nM | –

Row | SMILES | pIC50 ([1]; read-out: rFP IC50) | DC50 (GSPT1; [2]) | DC50 (GSPT1; [3]) | pIC50 ([1]; read-out: IC50 value)
19 | CC1(c2ccc(NC(=O)OCc3ccc4c(c3)C(=O)N(C3CCC(=O)NC3=O)C4)cc2)COC1 (stereo not drawn) [Compound 62] | – | 30 to 300 nM | – | > 5.96
20 | CCc1cc(NC(=O)OCc2ccc3c(c2)C(=O)N(C2CCC(=O)NC2=O)C3)cc(Cl)c1C (stereo not drawn) [Compound 45] | < 5.77 | 30 to 300 nM | – | –
21 | O=C1CCC(N2Cc3ccc(COC(=O)Nc4cc(CN5CC6CC5CO6)cc(OC(F)F)c4)cc3C2=O)C(=O)N1 (stereo not drawn) [Compound 100] | – | 30 to 300 nM | – | > 5.96
22 | O=C1CCC(N2Cc3ccc(COC(=O)Nc4ccc(-c5ccccc5)cn4)cc3C2=O)C(=O)N1 (stereo not drawn) [Compound 143, (2-(2,6-dioxopiperidin-3-yl)-3-oxoisoindolin-5-yl)methyl (5-phenylpyridin-2-yl)carbamate] | < 5.77 | 30 to 300 nM | – | –
23 | O=C1CCC(N2Cc3ccc(COC(=O)Nc4ccc(C5(F)CC5)nc4)cc3C2=O)C(=O)N1 (stereo not drawn) [Compound 109, (2-(2,6-dioxopiperidin-3-yl)-3-oxoisoindolin-5-yl)methyl (6-(1-fluorocyclopropyl)pyridin-3-yl)carbamate] | – | < 30 nM | ≤ 30 nM | –
24 | Cc1ccc(OC(F)(F)F)cc1NC(=O)OCc1ccc2c(c1)C(=O)N(C1CCC(=O)NC1=O)C2 (stereo not drawn) [Compound 128] | – | > 300 nM | – | –
25 | Cc1c(F)cc(NC(=O)OCc2ccc3c(c2)C(=O)N(C2CCC(=O)NC2=O)C3)cc1F (stereo not drawn) [Compound 127, (2-(2,6-dioxopiperidin-3-yl)-3-oxoisoindolin-5-yl)methyl (3,5-difluoro-4-methylphenyl)carbamate] | – | 30 to 300 nM | – | –
26 | O=C1CCC(N2Cc3ccc(COC(=O)Nc4cc(OC(F)(F)F)ccc4F)cc3C2=O)C(=O)N1 (stereo not drawn) [Compound 145, (2-(2,6-dioxopiperidin-3-yl)-3-oxoisoindolin-5-yl)methyl(2-fluoro-5-(trifluoromethoxy)phenyl)carbamate] | – | 30 to 300 nM | – | –
27 | O=C1CCC(N2Cc3ccc(COC(=O)Nc4cc(Cl)cc(OC5CCNC5)c4)cc3C2=O)C(=O)N1 (stereo not drawn) [Compound 20] | – | > 300 nM | – | –
28 | CC(C)(C)c1ccc(NC(=O)OCc2ccc3c(c2)C(=O)N(C2CCC(=O)NC2=O)C3)nc1 (stereo not drawn) [Compound 131, (2-(2,6-dioxopiperidin-3-yl)-3-oxoisoindolin-5-yl)methyl (5-(tert-butyl)pyridin-2-yl)carbamate] | – | 30 to 300 nM | – | –
29 | O=C1CCC(N2Cc3ccc(COC(=O)Nc4cccc(OC(F)F)c4)cc3C2=O)C(=O)N1 (stereo not drawn) [Compound 5] | – | < 30 nM | ≤ 30 nM | –
30 | Cc1cc(Cl)cc(NC(=O)OCc2ccc3c(c2)C(=O)N(C2CCC(=O)NC2=O)C3)c1 (stereo not drawn) [Compound 144, (2-(2,6-dioxopiperidin-3-yl)-3-oxoisoindolin-5-yl)methyl (3-chloro-5-methylphenyl)carbamate] | – | 30 to 300 nM | – | –
31 | Cc1ccc(NC(=O)OCc2ccc3c(c2)C(=O)N(C2CCC(=O)NC2=O)C3)cc1F (stereo not drawn) [Compound 133, (2-(2,6-dioxopiperidin-3-yl)-3-oxoisoindolin-5-yl)methyl (3-fluoro-4-methylphenyl)carbamate] | – | 30 to 300 nM | – | –
32 | O=C1CCC(N2Cc3ccc(COC(=O)NC4CCCCC4)cc3C2=O)C(=O)N1 (stereo not drawn) [Compound 28] | – | > 300 nM | – | –
33 | COc1ccc(Cl)cc1NC(=O)OCc1ccc2c(c1)C(=O)N(C1CCC(=O)NC1=O)C2 (stereo not drawn) [Compound 14] | – | > 300 nM | – | –
34 | COc1cc(NC(=O)OCc2ccc3c(c2)C(=O)N(C2CCC(=O)NC2=O)C3)cnc1-c1ccccc1 (stereo not drawn) [Compound 90] | – | < 30 nM | ≤ 30 nM | –
35 | O=C1CCC(N2Cc3ccc(COC(=O)Nc4cc(OCCN5CCOCC5)cc(OC(F)F)c4)cc3C2=O)C(=O)N1 (stereo not drawn) [Compound 96] | – | < 30 nM | ≤ 30 nM | –
